The values that follow come from patent US20180186814A1, “TRICYCLIC COMPOUND HAVING SULFINYL OR SULFONYL” (Shionogi & Co., Ltd., priority 2015, published 2018).

≈ marks a conversion by molar mass, not a printed value.

Holding throughout (format): cell-based
One assay concerns K. pneumoniae NCTC13443. The experiment in a line: MIC by microbroth dilution (CLSI), strain No. 4. To be noted: K. pneumoniae NCTC13443, NDM-1, MBL-producing strain, carbapenem-resistant, cation-adjusted Mueller-Hinton broth; for MIC: Klebsiella pneumoniae, read-out: minimum inhibitory concentration (MIC), Strain No. 4. As for the experimental part:
(§1) The minimum inhibitory concentration (MIC) was measured by the microbroth dilution method in accordance with the procedures recommended by CLSI (Clinical and Laboratory Standards Institute) using 1×10^5 CFU/mL as an inoculum dose and a cation-adjusted Mueller-Hinton broth as a test medium.
(§2) The strains used are as described in the table below.

A further assay concerns E. cloacae SR36276. The assay can be described thus: MIC by microbroth dilution (CLSI), strain No. 5. To be noted: E. cloacae SR36276, AmpC, highly AmpC-producing strain, ceftazidime-resistant, cefepime-sensitive, cation-adjusted Mueller-Hinton broth; for MIC: Enterobacter cloacae, read-out: minimum inhibitory concentration (MIC), Strain No. 5. Here is the method:
as §1, §2

For another assay, the system named is E. cloacae ATCC13047. The experiment in a line: MIC by microbroth dilution (CLSI), strain No. 1. To be noted: E. cloacae ATCC13047, AmpC, ceftazidime-resistant, cefepime-sensitive, cation-adjusted Mueller-Hinton broth; for MIC: Enterobacter cloacae, read-out: minimum inhibitory concentration (MIC), Strain No. 1. As for the experimental part: as §1, §2
The subject of a further assay is K. pneumoniae SR01453. The assay can be described thus: MIC by microbroth dilution (CLSI), strain No. 3. To be noted: K. pneumoniae SR01453, NDM-1, MBL-producing strain, carbapenem-resistant, cation-adjusted Mueller-Hinton broth; for MIC: Klebsiella pneumoniae, read-out: minimum inhibitory concentration (MIC), Strain No. 3. Here is the method: as §1, §2
The subject of a further assay is E. coli SR09613. The assay can be described thus: MIC by microbroth dilution (CLSI), strain No. 6. To be noted: for MIC: Escherichia coli, SR09613, read-out: minimum inhibitory concentration (MIC), Strain No. 6; for minimum inhibitory concentration (MIC), Strain No. 6: E. coli SR09613, CMY-2 type, plasmid AmpC-producing strain, ceftazidime-resistant, cefepime-sensitive, cation-adjusted Mueller-Hinton broth. Here is the method:
as §1, §2

As for `CC[C@H](O/N=C(\C(=O)N[C@@H]1C(=O)N2[C@@H]1[S@@+]([O-])C[C@@H]1CC(=O)O[C@@]12C(=O)O)c1csc(N)n1)C(=O)O` [Compound I-009], the MIC in the assay with K. pneumoniae NCTC13443 was 4 µg/mL (≈ 7.55 µM); in the assay with E. cloacae SR36276, 0.25 µg/mL (≈ 0.472 µM); in the assay on E. cloacae ATCC13047 it was 0.5 µg/mL (≈ 0.944 µM); in the assay on K. pneumoniae SR01453, 0.5 µg/mL (≈ 0.944 µM).

Turning to `Nc1nc(/C(=N/OCCF)C(=O)N[C@@H]2C(=O)N3[C@@H]2[S@@+]([O-])C[C@@H]2CC(=O)O[C@@]23C(=O)O)cs1` [Compound I-010], the MIC worked out at 8 µg/mL (≈ 16.3 µM) in the assay with K. pneumoniae NCTC13443, 1 µg/mL (≈ 2.04 µM) in the assay on E. cloacae SR36276, 0.25 µg/mL (≈ 0.511 µM) in the assay with E. cloacae ATCC13047 and 0.25 µg/mL (≈ 0.511 µM) in the assay on K. pneumoniae SR01453.

As for `CCO/N=C(\C(=O)N[C@@H]1C(=O)N2[C@@H]1[S@@+]([O-])C[C@@H]1CC(=O)O[C@@]12C(=O)O)c1csc(N)n1` [Compound I-019], the MIC with K. pneumoniae NCTC13443 amounted to 8 µg/mL (≈ 17 µM); with E. cloacae SR36276 it was 1 µg/mL (≈ 2.12 µM); with E. cloacae ATCC13047, 0.5 µg/mL (≈ 1.06 µM); with K. pneumoniae SR01453, 0.5 µg/mL (≈ 1.06 µM).

For `CC(C)[C@H](O/N=C(\C(=O)N[C@@H]1C(=O)N2[C@@H]1[S@@+]([O-])C[C@@H]1CC(=O)O[C@@]12C(=O)O)c1csc(N)n1)C(=O)O` [Compound I-022], the MIC in the assay on E. cloacae SR36276 worked out at 0.5 µg/mL (≈ 0.92 µM); in the assay with K. pneumoniae SR01453, 1 µg/mL (≈ 1.84 µM).

With `Nc1nc(/C(=N/O)C(=O)N[C@@H]2C(=O)N3[C@@H]2[S@@+]([O-])C[C@@H]2CC(=O)O[C@@]23C(=O)O)cs1` [Compound I-024], the MIC came to 4 µg/mL (≈ 9.02 µM) with E. cloacae SR36276 and 2 µg/mL (≈ 4.51 µM) with K. pneumoniae SR01453.

Regarding `Nc1nc(/C(=N/OCC(=O)O)C(=O)N[C@@H]2C(=O)N3[C@@H]2[SH](O)C[C@@H]2CC(=O)O[C@@]23C(=O)O)c(F)s1` (stereo partly drawn) [Compound I-036], the “minimum inhibitory concentration (MIC), Strain No. 4” value in the assay with K. pneumoniae NCTC13443 is 8 µg/mL (≈ 15.3 µM). In addition, the “minimum inhibitory concentration (MIC), Strain No. 5” value with E. cloacae SR36276 worked out at 1 µg/mL (≈ 1.92 µM). Moreover, the “minimum inhibitory concentration (MIC), Strain No. 1” value with E. cloacae ATCC13047 came out at 0.5 µg/mL (≈ 0.959 µM). Moreover, the “minimum inhibitory concentration (MIC), Strain No. 3” value in the assay on K. pneumoniae SR01453 stood at 1 µg/mL (≈ 1.92 µM).

As to `Nc1nc(/C(=N/OCc2ccncc2)C(=O)N[C@@H]2C(=O)N3[C@@H]2[S@@+]([O-])C[C@@H]2CC(=O)O[C@@]23C(=O)O)cs1` [Compound I-040], the MIC in the assay on E. coli SR09613 worked out at 4 µg/mL (≈ 7.48 µM).

Consider `C[n+]1cccc(CO/N=C(\C(=O)N[C@@H]2C(=O)N3[C@@H]2[S@@+]([O-])C[C@@H]2CC(=O)O[C@@]23C(=O)[O-])c2csc(N)n2)c1` [Compound I-043], for which the MIC in the assay on E. coli SR09613 and with K. pneumoniae SR01453 was 2 µg/mL (≈ 3.65 µM) each time.

With `Nc1nc(/C(=N/OCC(=O)O)C(=O)N[C@@H]2C(=O)N3[C@@H]2[S@@+]([O-])C[C@@H]2CC(=O)O[C@@]23c2nnn[nH]2)cs1` [Compound I-046], the figures for the MIC in the assay with E. cloacae SR36276, in the assay on E. cloacae ATCC13047 and in the assay on K. pneumoniae SR01453 were 0.5 µg/mL (≈ 0.952 µM), 1 µg/mL (≈ 1.9 µM) and 0.5 µg/mL (≈ 0.952 µM), respectively.

In the case of `CC(=O)NCCO/N=C(\C(=O)N[C@@H]1C(=O)N2[C@@H]1[S@@+]([O-])C[C@@H]1CC(=O)O[C@@]12C(=O)O)c1csc(N)n1` [Compound I-054], the “minimum inhibitory concentration (MIC), Strain No. 6” value with E. coli SR09613 stood at 0.5 µg/mL (≈ 0.946 µM). For the same compound, the “minimum inhibitory concentration (MIC), Strain No. 5” value with E. cloacae SR36276 is 4 µg/mL (≈ 7.57 µM). Moreover, the “minimum inhibitory concentration (MIC), Strain No. 1” value in the assay with E. cloacae ATCC13047 came out at 1 µg/mL (≈ 1.89 µM). For the same compound, the “minimum inhibitory concentration (MIC), Strain No. 3” value in the assay with K. pneumoniae SR01453 came to 0.5 µg/mL (≈ 0.946 µM).

On to `Nc1nc(/C(=N/OCc2cc(O)no2)C(=O)N[C@@H]2C(=O)N3[C@@H]2[S@H](O)C[C@@H]2CC(=O)O[C@@]23C(=O)[O-])cs1.[Na+]` [Compound I-063], for which the “minimum inhibitory concentration (MIC), Strain No. 6” value with E. coli SR09613 is 4 µg/mL.

Consider `COC(=O)NCCO/N=C(\C(=O)N[C@@H]1C(=O)N2[C@@H]1[S@@+]([O-])C[C@@H]1CC(=O)O[C@@]12C(=O)[O-])c1csc(N)n1.[Na+]` [Compound I-064], for which the MIC in the assay with K. pneumoniae SR01453 came to 2 µg/mL.

With `CCO/N=C(\C(=O)N[C@@H]1C(=O)N2[C@@H]1S(=O)(=O)C[C@@H]1CC(=O)O[C@@]12C(=O)[O-])c1csc(N)n1.[Na+]` [Compound I-071], the MIC with K. pneumoniae NCTC13443 came to 8 µg/mL; with E. cloacae SR36276 it was 4 µg/mL; in the assay on E. cloacae ATCC13047, 2 µg/mL; with K. pneumoniae SR01453, 1 µg/mL.
